Columns and labels:
[1] = target: T1, wild-type ATXN3 protein (ATXN3-Q27) (Homo sapiens, UniProt P54252, G306R/INS305QQQQQQQQQQQQQQQQQ/V212M); experiment: Western-blot of ATXN3 level in fibroblasts; format: cell-based; details: 100 nM compound 1 or 50 nM compound 2 for 2 days; Western-blots
T1 construct: endogenous in cells; host or cells: wild-type fibroblasts (Q27), and possibly the normal allele of SCA3 patient fibroblasts
Procedure: (§1) Some primary patient fibroblasts and wild-type cells are from HD patients (Q47, Q55) of the Mongolian Huntington's disease family and healthy controls (WT, Q19). SCA3 cell line was from patient (Q74). The HD Q68 fibroblast cell line was from Coriell Cell Repositories (Camden, N.J., USA). Immortalized fibroblasts and induced stem cells (iPSCs) are prepared from primary fibroblasts. HEK293T cells were from ATCC.
(§2) Then the levels of mutant ATXN3 protein (ATXN3-Q74, SEQ ID NO: 3) and wild-type ATXN3 protein (ATXN3-Q27, SEQ ID NO: 4) were determined by Western-blots (FIG. 22). […] Therefore, the compound can be used to treat SCA3.

[2] = target: T2, full-length mHTT (flHTT-Q73) (Homo sapiens, UniProt P42858, INS38QQQQQQQQQQQQQQQQQQQQQQQQQQQQQQQQQQQQQQQQQQQQQQQQQQQQ); experiment: OI-RD detection of affinity to full-length HTT; format: binding
T2 construct: protein A (N, cleaved yes); made in house; host or cells: human embryonic kidney E293 cells
Procedure: (1) The human HTT gene (GenBank: NM_002111.8) with (CAG)23 or (CAG)73 was synthesized de novo by Genewiz Inc. The human HTT gene was cloned into the modified pCAG vector (from Addgene) with N-terminal protein A tag.
The protein is purified with IgG monoclonal antibody-agarose (Smart-lifesciences, SA030010), digested with TEV protease to remove the protein A tag, and further purified with Mono Q and Superose 6 (5/150 GL) columns from GE healthcare. Validation is conducted using Coomassie blue staining and Western-blots.

mHTT [3] = target: T3, mHTT (Homo sapiens, UniProt P42858, INS38QQQQQQQQQQQQQQQQQQQQQQQQQQ); experiment: HTRF of mHTT in HD patient iPSC-derived neurons (Q47); format: cell-based
T3 construct: endogenous in cells; host or cells: HD patient iPSC-derived neurons (Q47)

[4] = target: T4, mutant ATXN1 protein (His-ATXN1-Q92) (Homo sapiens, UniProt P54253, INS208QQQQQQQQQQQQQQQQQQQQQQQQQQQQQQQQQQQQQQQQQQQQQQQQQQQQQQQQQQQQQQQQQQQQQQQQQQQQQQQQ); experiment: HTRF of mutant ATXN1 level in HEK293T cells expressing His-ATXN1-Q92; format: cell-based; details: 100 nM for 2 days, HTRF anti-His-Tb/MW1-D2
T4 construct: expressed in transfected cells; host or cells: HEK293T (ATCC, CRL-3216)

[5] = target: T5, human HTT full-length protein (Q128) (Homo sapiens, UniProt P42858); experiment: mHTT level in heads of Huntington's disease Drosophilae (HTRF); format: in vivo, Drosophila; details: food with 10 μM in 400 μL DMSO, 6 days, head protein, HTRF 2B7/MW1
T5 construct: transgenic Drosophilae expressing human HTT full-length protein (Q128); tissue Bloomington Drosophila Stock Center (fly lines); host or cells: heads of elav-GAL4 x UAS-fl-HTT-Q128 Drosophila
Procedure: Crosses were set up between virgin female Drosophilae carrying elav-GAL4 driver and the UAS-fl-HTT-Q16 or UAS-fl-HTT-Q128 male Drosophilae to generate a transgenic Drosophilae driven by elav-GAL4 to express human HTT full-length protein (Q16) or (Q128) in the nervous system.
The negative control group was given the corresponding solvent DMSO, and the positive drug groups was given the corresponding positive drug.
Drosophilae were kept in standard food at 25° C. The newly hatched Drosophilae were transferred to vials with food containing the positive drug (10 μM in 400 μL DMSO) or DMSO for control. The corn food was changed every other day.
The mHTT level was measured by HTRF (antibody pair: 2B7/MW1), where each sample included head proteins from five Drosophila (FIG. 14).

[6] = target: T6, mutant ATXN3 protein (ATXN3-Q74) (Homo sapiens, UniProt P54252, G306R/INS305QQQQQQQQQQQQQQQQQQQQQQQQQQQQQQQQQQQQQQQQQQQQQQQQQQQQQQQQQQQQQQQQ/V212M); experiment: Western-blot of ATXN3 level in SCA3 patient fibroblasts (Q74); format: cell-based; details: 100 nM compound 1 or 50 nM compound 2 for 2 days, Western-blots
T6 construct: endogenous in cells; host or cells: SCA3 patient fibroblasts (Q74)
Procedure: as §1, §2

[7] = system: HD patient iPSC-derived neurons (Q47); experiment: Neuronal apoptosis of HD patient iPSC-derived neurons after BDNF removal (TUBB3 immunostaining, caspase-3 activity); format: cell-based, human; details: 100 nM compound 1 or 50 nM compound 2 for 1 day, then BDNF removal
Procedure: Immunofluorescence: cells were washed, fixed, permeabilized and blocked, then incubated with primary antibody overnight at 4° C., then washed three times with blocking buffer, and incubated with secondary antibody for 1 hour at room temperature, stained with DAPI, and mounted. Images were taken by Zeiss Axio Vert A1 confocal microscope. TUBB3 or co-localization was analyzed using ImageJ.
Then the cells were stressed (by BDNF removal).
Neuronal specific tubulin marker TUBB3 […]. The TUBB3 signal covered area was normalized to the cell nuclei counts, and the data was normalized to the wild type controls to analyze neuronal apoptosis (FIG. 12).
NucView 488 (Biotium, 30029) was used to detect active caspase-3. After removing BDNF, Incucyte (Essen Bioscience, IncuCyte FLR) was used to capture images every 3 hours in the incubator, which were analyze with Incucyte 2011A software. Three batches were tested and the results were consistent (FIG. 13).

wtHTT [8] = target: T7, wtHTT (Mus musculus, UniProt P42859); experiment: Western-blot of HTT levels in primary cultured Hdh^Q7/Q7 mouse cortical neurons; format: cell-based; parameters: endogenous in cells; host or cells: primary cortical neurons of newborn Hdh Q140/Q7 or Hdh Q7/Q7 mice; details: treated 2 days, Western-blots (antibody 2166)
Procedure: (§3) Primary cultured cortical neurons: The brains of Hdh^Q140/Q7 and Hdh^Q7/Q7 newborn mice (P0) were dissected, digested, dissociated, and cultured.
(§4) (1) The primary cultured Hdh^Q140/Q7 and Hdh^Q7/Q7 mouse cortical neuron cells were treated with the compound for 2 days. Then the levels of mHTT and wtHTT were detected by Western-blots (antibody 2166) (FIG. 4 and FIG. 5). […]

mHTT [9] = experiment: Western-blot of HTT levels in primary cultured Hdh^Q140/Q7 mouse cortical neurons; format: cell-based; details: treated 2 days, Western-blots (antibody 2166)
Procedure: as §3, §4

wtHTT [10] = target: T7, wtHTT; details: Hdh^Q140/Q7 mouse cortical neurons, treated 2 days, Western-blots (antibody 2166)
Procedure: as §3
(1) The primary cultured Hdh^Q140/Q7 and Hdh^Q7/Q7 mouse cortical neuron cells were treated with the compound for 2 days.

Q72-GFP = experiment: Level of polyQ-GFP fusion protein in HEK293T cells (Incucyte fluorescence counting); format: cell-based; details: 100 nM compound 1 or 50 nM compound 2 for 2 days
From the text: (§5) The inventors used HEK293T cells exogenously expressing polyQ-GFP fusion proteins (Q72-GFP or Q25-GFP) to detect compounds that can control the level of proteins containing expanded polyglutamine in the cells. The method was as follows:
(§6) (1) PolyQ-GFP cDNA sequence (expressing Met-polyQ-GFP, wherein polyQ was Q72 or Q25) was synthesized de novo and subcloned into pcDNA vector. It was transfected into HEK293T cells (ATCC, CRL-3216) through forward transfection to obtain Q72-GFP expressing cells and Q25-GFP expressing cells, respectively. And the same method was used to obtain cells expressing Q53-GFP, cells expressing Q46-GFP, and cells expressing Q38-GFP.
(§7) (3) The Q72-GFP expressing cells and Q25-GFP expressing cells obtained in step (1) were used. […] Then the level of polyQ-GFP was measured by Incucyte fluorescence counting (FIG. 1).

Q25-GFP [11] = experiment: as above; format: cell-based; details: 100 nM compound 1 or 50 nM compound 2 for 2 days
From the text: as §5, §6, §7

mHTT [12] = experiment: Intracerebroventricular injection: mHTT and wtHTT levels in cortices of HD mice (Western-blots); format: in vivo, mouse; details: Hdh^Q140/Q7 mice; icv 2 μL of 25 μM per day, 10 days; Western-blots (antibody 2166)
Procedure: Mice expressing wild-type HTT gene (Hdh^Q7/Q7) were from the Marian Difiglia laboratory of Massachusetts General Hospital, Harvard University.
Experimental animals: Hdh^Q140/Q7 mice (3 months old), 4 in each group.
Each test includes three repetitions for each sample, and the mean values was calculated (FIG. 17).

[13] = In vivo compound detection in brain tissues of ip-injected mice (LC-MS/MS); details: mouse, 2 hours after ip-injection (0.5 mg/kg), read-out: level of compound reached the brain tissue
Procedure: (§8) Experimental method: The compound or control DMSO was diluted with 0.9% NaCl intravenous infusion solution to 0.05 μg/μL. One ip-injection (0.5 mg/kg) was conducted per day. After 14 days of injection, tissue extraction or behavioral experiment were conducted.
In vivo compound detection in brain tissues of ip-injected mice: 2 hours after ip-injection of DMSO or compound in mice, the brain was dissected, weighed, and the compound in the brain tissue was extracted, analyzed with UPLC-MS (Acquity Ultra Performance Liquid Chromatography System, Acquity UPLC BEH C18 (1.7 μm, 2.1×50 mm) column and Xevo TQ-S mass spectrometer, Waters Corporation, Milford, MA, USA) for LC-MS/MS analysis. […] The compound of the present invention can be delivered to the brain of mice through the BBB smoothly, which potentially facilitates oral administration of the compound.

mHTT [14] = experiment: HTRF of mHTT in HD patient immortalized fibroblasts; details: at different doses (FIG. 10)
Procedure: Homogeneous time-resolved fluorescence (HTRF) analysis: the cell or tissue lysate was diluted with the original lysis buffer PBS+1% (v/v) Triton X-100+1×cOmplete™ protease inhibitor to lyse the sample, then HTRF assay buffer (50 mM NaH2PO4, 400 mM NaF, 0.1% BSA, 0.05% (v/v) Tween-20, 1% (v/v) Triton X-100, pH 7.4) was used to dilute the specified antibody pair for detection. In HTRF buffer, the donor antibody concentration was 0.023 ng/μL and the acceptor antibody concentration was 1.4 ng/μL.

mHTT [15] = experiment: Intraperitoneal injection: mHTT and wtHTT levels in cortices and striata of HD mice (Western-blots); format: in vivo, mouse; details: Hdh^Q140/Q7 mice, ip 0.5 mg/kg per day, 14 days
Procedure: as §8
(1) 13 Hdh^Q140/Q7 mice (5 months old) were randomized into 2 groups.
One ip-injection was conducted per day. After 14 days of injection, the protein was extracted and the levels of mHTT and wtHTT in the cortices of HD mice were detected by Western-blots (FIG. 18).
(2) A total of 13 mice Hdh^Q140/Q7 mice (10 months old) were used, 6-7 mice in each group. According to the above method, the mouse brain striatum neuronal protein was extracted and the levels of mHTT and wtHTT were detected by Western-blots (FIG. 19).

[16] = target: T8, normal ATXN3 protein (MBP-ATXN3-Q28) (Homo sapiens, UniProt P54252, INS305QQQQQQQQQQQQQQQQQQ); experiment: MST detection of affinity to ATXN3; format: binding; details: method in 2.2
T8 construct: His8; made in house; host or cells: Escherichia coli Rosetta(DE3)pLysS
Procedure: (1) His8 tag and TEV protease cleavage site is added in pMal-C2x plasmid (from New England Biolabs) to prepare prokaryotic expression vector pMBP. The ATXN3 gene (GenBank: NM_001127696.2) is edited to control the length of the expanded polyglutamine, the gene is amplified and cloned into the prepared pMBP to obtain the pMBP-ATXN3-Q28 and pMBP-ATXN3-Q68 plasmids with polyQ repeated 28 and 68 times, respectively.
(2) The expression plasmids pMBP-ATXN3-Q28 and pMBP-ATXN3-Q68 were introduced into Escherichia coli Rosetta(DE3)pLsyS for expression. Preliminary purification was conducted with HisTrap HP column (GE Healthcare, 17524701). The product was concentrated by ultrafiltration and then further purified with Superose 6 Increase 10/300 GL size exclusion column (GE Healthcare).
(3) As verified by SDS-PAGE, the purity of the prepared human MBP-ATXN3-Q28 and MBP-ATXN3-Q68 exceeds 98%.

Q25-GFP [17] = details: MST; 20 mM HEPES, pH 7.4, 150 mM NaCl; protein 500 nM
mHTT aggregates = mHTT aggregates in cortices of Hdh^Q140/Q7 mice (dot-blot, HTRF 4C9/4C9); format: in vivo, mouse; details: ip-injection, dot-blot 4C9 and HTRF 4C9/4C9
Procedure: as §8
(3) mHTT aggregates in the cortices of Hdh^Q140/Q7 mice were detected by dot-blot experiment (antibody: 4C9, bar plot showing the results of two repetitions) and HTRF (antibody pair: 4C9/4C9). Sampling was repeated for each mouse two to three times on average (FIG. 20).

T4 sequence (P54253 with tags, fused parts or gaps with the stated changes): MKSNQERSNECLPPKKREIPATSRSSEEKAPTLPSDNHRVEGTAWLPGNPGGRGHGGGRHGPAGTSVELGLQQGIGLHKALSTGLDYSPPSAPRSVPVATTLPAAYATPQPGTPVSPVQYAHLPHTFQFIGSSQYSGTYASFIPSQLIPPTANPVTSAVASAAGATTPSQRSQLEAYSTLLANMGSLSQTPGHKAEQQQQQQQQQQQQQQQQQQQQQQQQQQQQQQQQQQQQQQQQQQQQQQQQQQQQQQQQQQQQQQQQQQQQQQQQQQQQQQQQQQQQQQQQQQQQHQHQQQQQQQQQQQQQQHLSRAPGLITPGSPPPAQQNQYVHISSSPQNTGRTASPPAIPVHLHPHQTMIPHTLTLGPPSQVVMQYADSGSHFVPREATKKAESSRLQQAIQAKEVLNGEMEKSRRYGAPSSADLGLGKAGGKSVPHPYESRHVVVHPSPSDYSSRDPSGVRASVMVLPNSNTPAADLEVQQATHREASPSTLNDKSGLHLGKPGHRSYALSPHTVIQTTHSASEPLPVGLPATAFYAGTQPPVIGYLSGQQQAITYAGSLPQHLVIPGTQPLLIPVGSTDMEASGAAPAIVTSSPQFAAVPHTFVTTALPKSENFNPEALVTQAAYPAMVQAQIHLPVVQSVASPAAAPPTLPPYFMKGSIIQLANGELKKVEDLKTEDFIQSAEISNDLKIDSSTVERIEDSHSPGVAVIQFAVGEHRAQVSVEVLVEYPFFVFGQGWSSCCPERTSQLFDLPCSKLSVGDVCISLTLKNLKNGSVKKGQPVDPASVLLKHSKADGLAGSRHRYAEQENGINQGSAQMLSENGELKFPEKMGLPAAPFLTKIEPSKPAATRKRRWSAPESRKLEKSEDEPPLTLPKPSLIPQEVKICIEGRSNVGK
T1 sequence (P54252 with tags, fused parts or gaps isoform P54252-1 with the stated changes): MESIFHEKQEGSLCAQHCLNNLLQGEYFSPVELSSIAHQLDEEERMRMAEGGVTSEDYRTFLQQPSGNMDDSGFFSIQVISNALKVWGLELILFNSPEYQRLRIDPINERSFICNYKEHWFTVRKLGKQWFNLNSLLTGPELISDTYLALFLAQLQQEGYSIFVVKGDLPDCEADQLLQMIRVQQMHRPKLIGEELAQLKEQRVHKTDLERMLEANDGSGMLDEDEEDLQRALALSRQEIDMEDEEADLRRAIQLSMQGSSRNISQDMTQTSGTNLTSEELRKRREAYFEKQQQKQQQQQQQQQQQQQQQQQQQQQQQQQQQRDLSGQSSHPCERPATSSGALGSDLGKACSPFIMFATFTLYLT
T7 sequence (P42859 whole entry): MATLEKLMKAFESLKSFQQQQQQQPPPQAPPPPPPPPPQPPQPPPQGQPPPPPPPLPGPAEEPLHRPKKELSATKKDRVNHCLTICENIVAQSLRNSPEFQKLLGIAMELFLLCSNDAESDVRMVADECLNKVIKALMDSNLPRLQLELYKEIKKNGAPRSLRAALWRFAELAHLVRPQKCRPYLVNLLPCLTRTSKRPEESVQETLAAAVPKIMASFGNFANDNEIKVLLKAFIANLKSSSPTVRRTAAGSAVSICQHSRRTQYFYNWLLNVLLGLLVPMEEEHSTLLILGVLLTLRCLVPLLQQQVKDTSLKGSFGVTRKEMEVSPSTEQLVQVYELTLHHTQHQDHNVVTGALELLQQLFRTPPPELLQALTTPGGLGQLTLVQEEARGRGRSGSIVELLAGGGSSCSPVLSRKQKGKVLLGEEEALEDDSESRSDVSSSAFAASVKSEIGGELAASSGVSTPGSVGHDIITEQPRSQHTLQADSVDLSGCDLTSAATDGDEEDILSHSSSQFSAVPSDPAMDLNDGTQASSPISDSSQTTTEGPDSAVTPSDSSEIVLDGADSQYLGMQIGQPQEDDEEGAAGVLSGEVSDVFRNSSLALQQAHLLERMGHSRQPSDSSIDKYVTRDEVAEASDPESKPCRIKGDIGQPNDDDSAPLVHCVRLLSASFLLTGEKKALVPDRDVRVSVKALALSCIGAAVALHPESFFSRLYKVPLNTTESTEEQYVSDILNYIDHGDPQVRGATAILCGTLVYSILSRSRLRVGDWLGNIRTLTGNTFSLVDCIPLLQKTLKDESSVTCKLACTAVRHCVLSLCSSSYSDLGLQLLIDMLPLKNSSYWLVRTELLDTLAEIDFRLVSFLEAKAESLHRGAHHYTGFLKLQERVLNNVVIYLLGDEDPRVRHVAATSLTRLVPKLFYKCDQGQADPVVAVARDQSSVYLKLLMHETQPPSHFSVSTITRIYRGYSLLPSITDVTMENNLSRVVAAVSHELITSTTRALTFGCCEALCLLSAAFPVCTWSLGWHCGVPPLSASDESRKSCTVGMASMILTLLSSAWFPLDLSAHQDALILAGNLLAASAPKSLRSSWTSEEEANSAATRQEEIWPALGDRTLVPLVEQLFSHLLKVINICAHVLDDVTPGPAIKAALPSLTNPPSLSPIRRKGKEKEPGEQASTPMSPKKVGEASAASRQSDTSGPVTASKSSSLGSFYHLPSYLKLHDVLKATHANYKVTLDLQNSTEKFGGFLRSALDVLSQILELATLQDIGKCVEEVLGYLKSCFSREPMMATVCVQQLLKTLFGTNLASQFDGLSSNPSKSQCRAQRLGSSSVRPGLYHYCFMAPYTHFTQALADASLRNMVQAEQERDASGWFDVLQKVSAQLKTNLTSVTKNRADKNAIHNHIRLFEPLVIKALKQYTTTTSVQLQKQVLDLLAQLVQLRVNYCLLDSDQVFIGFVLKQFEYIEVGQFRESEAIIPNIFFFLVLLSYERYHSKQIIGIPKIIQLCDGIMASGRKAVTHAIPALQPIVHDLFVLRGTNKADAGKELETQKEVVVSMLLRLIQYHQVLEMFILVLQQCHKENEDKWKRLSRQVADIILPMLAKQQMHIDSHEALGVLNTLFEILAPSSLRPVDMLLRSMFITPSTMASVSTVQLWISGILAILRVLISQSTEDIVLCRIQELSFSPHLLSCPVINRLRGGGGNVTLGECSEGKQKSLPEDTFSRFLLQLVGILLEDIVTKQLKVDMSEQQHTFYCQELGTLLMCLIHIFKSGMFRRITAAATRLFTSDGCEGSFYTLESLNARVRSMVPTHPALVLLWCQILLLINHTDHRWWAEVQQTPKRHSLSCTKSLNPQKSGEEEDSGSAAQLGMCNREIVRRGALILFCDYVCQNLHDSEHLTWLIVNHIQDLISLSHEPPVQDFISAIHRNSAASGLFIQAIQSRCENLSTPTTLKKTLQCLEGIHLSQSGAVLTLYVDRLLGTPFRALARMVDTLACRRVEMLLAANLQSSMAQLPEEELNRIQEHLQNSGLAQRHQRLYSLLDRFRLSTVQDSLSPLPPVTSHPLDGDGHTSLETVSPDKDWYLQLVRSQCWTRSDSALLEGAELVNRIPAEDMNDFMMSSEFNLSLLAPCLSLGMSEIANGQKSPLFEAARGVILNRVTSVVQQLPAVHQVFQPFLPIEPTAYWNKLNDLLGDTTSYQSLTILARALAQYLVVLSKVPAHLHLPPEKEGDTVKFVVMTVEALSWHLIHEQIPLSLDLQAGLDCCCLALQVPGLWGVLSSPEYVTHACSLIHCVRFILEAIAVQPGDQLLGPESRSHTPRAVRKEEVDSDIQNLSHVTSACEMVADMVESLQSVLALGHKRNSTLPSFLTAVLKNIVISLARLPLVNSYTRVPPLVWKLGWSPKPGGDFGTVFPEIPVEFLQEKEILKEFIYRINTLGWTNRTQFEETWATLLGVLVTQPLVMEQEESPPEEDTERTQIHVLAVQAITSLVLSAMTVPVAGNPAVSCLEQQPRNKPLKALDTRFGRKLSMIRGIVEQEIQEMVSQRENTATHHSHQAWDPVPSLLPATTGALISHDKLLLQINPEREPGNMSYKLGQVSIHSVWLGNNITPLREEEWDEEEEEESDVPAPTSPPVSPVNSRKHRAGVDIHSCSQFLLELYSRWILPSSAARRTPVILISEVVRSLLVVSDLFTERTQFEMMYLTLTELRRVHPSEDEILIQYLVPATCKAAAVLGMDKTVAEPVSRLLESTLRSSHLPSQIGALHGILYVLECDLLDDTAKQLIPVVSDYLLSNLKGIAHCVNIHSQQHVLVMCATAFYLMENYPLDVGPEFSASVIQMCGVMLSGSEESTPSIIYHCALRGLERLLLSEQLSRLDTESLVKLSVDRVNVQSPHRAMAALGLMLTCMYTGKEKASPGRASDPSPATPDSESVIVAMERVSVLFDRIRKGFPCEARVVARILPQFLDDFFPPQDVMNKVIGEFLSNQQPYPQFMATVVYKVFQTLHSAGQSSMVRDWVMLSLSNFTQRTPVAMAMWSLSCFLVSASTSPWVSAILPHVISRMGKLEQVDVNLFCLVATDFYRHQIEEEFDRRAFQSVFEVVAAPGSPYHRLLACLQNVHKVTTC
T6 sequence (P54252 with tags, fused parts or gaps isoform P54252-1 with the stated changes): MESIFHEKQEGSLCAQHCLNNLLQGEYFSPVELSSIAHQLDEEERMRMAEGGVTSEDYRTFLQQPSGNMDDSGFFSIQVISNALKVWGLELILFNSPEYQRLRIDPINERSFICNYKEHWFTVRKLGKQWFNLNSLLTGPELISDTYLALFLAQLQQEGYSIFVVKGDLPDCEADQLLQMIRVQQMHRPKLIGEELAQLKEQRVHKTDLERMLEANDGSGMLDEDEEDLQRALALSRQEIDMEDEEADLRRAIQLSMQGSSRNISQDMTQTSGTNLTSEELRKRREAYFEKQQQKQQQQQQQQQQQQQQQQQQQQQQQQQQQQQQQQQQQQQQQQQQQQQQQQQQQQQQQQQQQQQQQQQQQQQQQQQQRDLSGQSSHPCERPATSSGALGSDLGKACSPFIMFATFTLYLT

Structure (SMILES): Cc1ccc(C(=O)N(CCCN)[C@@H](c2nc3cc(Cl)ccc3c(=O)n2Cc2ccccc2)C(C)C)cc1 [compound 1, ispinesib]
- wild-type ATXN3 protein level [1]: no decrease
- Kon [2]: 6.43e-05 min/nM
- mHTT levels in HD patient iPSC-derived neurons (mHTT [3]; neurons Q47, HTRF 2B7/MW1, method similar to 5.1): Decreased mHTT levels
- levels of mutant ATXN1 [4]: Decreased levels
- mHTT levels in transgenic Drosophilae [5]: reduced
- mutant ATXN3 protein level [6]: decrease
- loss of processes and shrinkage of HD neurons after removal of BDNF [7]: significantly improved
- wtHTT levels in cortical neurons (wtHTT [8]): did not reduce
- level of mHTT in cortical neurons (mHTT [9]): reduced
- level of wtHTT in cortical neurons (wtHTT [10]): hardly affected
- level of the protein containing expanded polyglutamine (Q72-GFP) (Q72-GFP): effectively reduced
- level of the protein containing the shorter polyglutamine (Q25-GFP) (Q25-GFP [11]): did not reduce

Structure (SMILES): O=c1cc(-c2ccccc2)c2c(O)cc(O)cc2o1 [compound 2]
- mHTT level in cortices (mHTT [12]): significantly reduced
- wild-type ATXN3 protein level [1]: no decrease
- concentration at 2 h [13]: 9.48 ng/g
- levels of mutant ATXN1 [4]: Decreased levels
- mutant ATXN3 protein level [6]: decrease
- loss of processes and shrinkage of HD neurons after removal of BDNF [7]: significantly improved
- level of mHTT in HD patient immortalized fibroblasts (mHTT [14]): reduced
- level of mHTT in cortical neurons (mHTT [9]): reduced
- levels of mHTT in the cortices (mHTT [15]): reduced
- levels of mHTT in the striata (mHTT [15]): reduced
- binding with normal ATXN3 protein (MBP-ATXN3-Q28) [16]: did not bind
- binding affinity with Q25-GFP (Q25-GFP [17]): no binding affinity
- level of the protein containing expanded polyglutamine (Q72-GFP) (Q72-GFP): effectively reduced
- level of the protein containing the shorter polyglutamine (Q25-GFP) (Q25-GFP [11]): did not reduce
- mHTT aggregates in the cortices (mHTT aggregates): No increase in mHTT aggregates

Structure (SMILES): COc1ccc2c(c1)/C(=C/c1cnc[nH]1)C(=O)N2 [compound 4, Su9516]
- levels of mutant ATXN1 [4]: Decreased levels

Structure (SMILES): CC(=O)Nc1cc2ccccc2oc1=O [compound 5]
- reduction of mHTT levels in HD patient iPSC-derived neurons (mHTT [3]; HTRF 2B7/MW1, same method as for compounds 1 and 2): approximately 26.8%

Structure (SMILES): O=c1cc(-c2ccccc2)c2ccc(O)c(O)c2o1 [compound 6]
- levels of mutant ATXN1 [4]: Decreased levels

— US12409161B2, “Compound for treating neurodegenerative disorders” (FUDAN UNIVERSITY, priority 2019, dated 2025)
